According to patent publication US20030176456A1, “Methods for reducing alcohol cravings in chronic alcoholics” (priority 2001, published 2003):
Where two headings read alike, the source gives them in different places.

Assays:
GABAA α2β3γ2 receptors = assay: Xenopus oocyte expression assay, modulation of GABA current; format: cell-based, rat; settings: saturating 1-10 μM modulator with EC50 GABA (50 μM); mean±S.D.
α3β3γ2 GABAA receptor [1] = target: T1, α3β3γ2 GABAA receptor (Homo sapiens, UniProt P18507+P34903); settings: footnoted b or c; read-out: Ki α3; cited from earlier work
T1 construct: expressed in transfected cells
T1 sequence (P34903 29-492): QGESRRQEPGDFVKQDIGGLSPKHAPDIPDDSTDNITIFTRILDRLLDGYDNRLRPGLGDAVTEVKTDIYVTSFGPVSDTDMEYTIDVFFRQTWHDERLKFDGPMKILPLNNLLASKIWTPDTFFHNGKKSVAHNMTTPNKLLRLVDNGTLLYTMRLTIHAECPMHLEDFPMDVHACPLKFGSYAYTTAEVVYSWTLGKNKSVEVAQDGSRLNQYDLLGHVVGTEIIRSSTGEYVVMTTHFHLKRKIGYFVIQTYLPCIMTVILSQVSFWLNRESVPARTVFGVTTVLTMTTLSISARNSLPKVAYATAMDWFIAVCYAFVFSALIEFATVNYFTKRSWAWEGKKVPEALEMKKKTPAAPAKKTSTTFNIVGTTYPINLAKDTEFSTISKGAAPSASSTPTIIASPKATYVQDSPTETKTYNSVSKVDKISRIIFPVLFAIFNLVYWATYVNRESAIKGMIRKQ
T1 sequence (P28472 26-473 partner): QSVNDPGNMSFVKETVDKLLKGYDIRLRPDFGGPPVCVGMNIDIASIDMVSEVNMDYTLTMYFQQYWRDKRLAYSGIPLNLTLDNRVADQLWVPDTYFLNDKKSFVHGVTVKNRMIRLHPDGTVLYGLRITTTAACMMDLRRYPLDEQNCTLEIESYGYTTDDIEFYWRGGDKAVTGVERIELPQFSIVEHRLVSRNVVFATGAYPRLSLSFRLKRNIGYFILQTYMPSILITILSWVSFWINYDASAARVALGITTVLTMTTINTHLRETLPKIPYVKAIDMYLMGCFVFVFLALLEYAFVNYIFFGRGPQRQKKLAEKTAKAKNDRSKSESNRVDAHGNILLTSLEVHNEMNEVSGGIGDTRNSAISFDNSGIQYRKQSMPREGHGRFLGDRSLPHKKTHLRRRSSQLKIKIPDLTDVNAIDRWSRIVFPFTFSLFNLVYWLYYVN
T1 sequence (P18507 40-475): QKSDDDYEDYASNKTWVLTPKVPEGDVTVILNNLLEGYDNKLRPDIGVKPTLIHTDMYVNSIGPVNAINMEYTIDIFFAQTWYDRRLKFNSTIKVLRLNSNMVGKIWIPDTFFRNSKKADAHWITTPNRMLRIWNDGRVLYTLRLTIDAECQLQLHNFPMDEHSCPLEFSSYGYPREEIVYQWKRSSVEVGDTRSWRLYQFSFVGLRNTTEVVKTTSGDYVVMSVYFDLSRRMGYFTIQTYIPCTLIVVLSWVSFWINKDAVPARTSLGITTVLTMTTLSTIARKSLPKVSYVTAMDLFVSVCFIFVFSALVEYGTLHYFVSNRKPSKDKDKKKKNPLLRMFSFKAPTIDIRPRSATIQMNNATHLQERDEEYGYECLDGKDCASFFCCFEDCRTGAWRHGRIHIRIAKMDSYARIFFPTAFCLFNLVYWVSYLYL

[2] = June et al., 1998e; cited from earlier work
[3] = system: alcohol-preferring (P) rats; settings: parenteral and oral administration (June et al., 1998b); cited from earlier work
GABAA α1β3γ2 receptors = target: T2, GABAA α1β3γ2 receptors (Rattus norvegicus, UniProt P18508+P62813); assay: Xenopus oocyte expression assay, modulation of GABA current; format: cell-based; settings: saturating 1-10 μM modulator with EC50 GABA (50 μM); mean±S.D.
T2 construct: expressed in transfected cells; host or cells: Xenopus laevis oocytes injected with cRNA

α5β3γ2 GABAA receptor [4] = target: T3, α5β3γ2 GABAA receptor (Homo sapiens, UniProt P18507+P31644); settings: footnoted b or c; read-out: Ki α5; cited from earlier work
T3 construct: expressed in transfected cells
T3 sequence (P31644 32-462): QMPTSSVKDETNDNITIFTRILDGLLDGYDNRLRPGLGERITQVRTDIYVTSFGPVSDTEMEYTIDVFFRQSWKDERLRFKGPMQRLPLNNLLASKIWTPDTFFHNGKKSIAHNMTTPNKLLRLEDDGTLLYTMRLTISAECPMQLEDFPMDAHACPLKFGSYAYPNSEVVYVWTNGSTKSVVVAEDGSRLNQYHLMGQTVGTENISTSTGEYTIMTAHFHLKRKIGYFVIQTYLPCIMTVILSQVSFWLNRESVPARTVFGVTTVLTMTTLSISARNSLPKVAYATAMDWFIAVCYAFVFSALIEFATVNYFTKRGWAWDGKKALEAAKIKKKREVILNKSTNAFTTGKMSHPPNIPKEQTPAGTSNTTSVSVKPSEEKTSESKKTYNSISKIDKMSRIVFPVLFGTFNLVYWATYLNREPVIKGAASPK
T3 sequence (P28472 26-473 partner): as the sequence (P28472 26-473 partner) above
T3 sequence (P18507 40-475): as the sequence (P18507 40-475) above

α2β3γ2 GABAA receptor [5] = target: T4, α2β3γ2 GABAA receptor (Homo sapiens, UniProt P18507+P47869); settings: footnoted b or c; read-out: Ki α2; cited from earlier work
T4 construct: expressed in transfected cells
T4 sequence (P47869 29-451): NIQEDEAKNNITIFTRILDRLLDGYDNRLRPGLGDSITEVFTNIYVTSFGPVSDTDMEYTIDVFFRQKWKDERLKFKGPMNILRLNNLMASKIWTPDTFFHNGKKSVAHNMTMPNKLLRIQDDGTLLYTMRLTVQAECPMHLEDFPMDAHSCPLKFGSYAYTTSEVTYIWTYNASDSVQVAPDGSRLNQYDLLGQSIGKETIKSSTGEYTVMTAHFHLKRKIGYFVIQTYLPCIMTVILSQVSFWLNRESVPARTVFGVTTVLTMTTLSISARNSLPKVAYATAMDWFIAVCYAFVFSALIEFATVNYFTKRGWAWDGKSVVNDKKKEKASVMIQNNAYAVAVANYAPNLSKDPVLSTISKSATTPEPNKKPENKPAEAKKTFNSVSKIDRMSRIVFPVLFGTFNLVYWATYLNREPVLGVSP
T4 sequence (P28472 26-473 partner): as the sequence (P28472 26-473 partner) above
T4 sequence (P18507 40-475): as the sequence (P18507 40-475) above

GABAA α5β3γ2 receptors = target: T5, GABAA α5β3γ2 receptors (Rattus norvegicus, UniProt P18508+P19969); assay: Xenopus oocyte expression assay, modulation of GABA current; format: cell-based; settings: saturating 1-10 μM modulator with EC50 GABA (30 μM); mean±S.D.
T5 construct: expressed in transfected cells; host or cells: Xenopus laevis oocytes injected with cRNA
T5 sequence (P19969 32-464 limits assumed): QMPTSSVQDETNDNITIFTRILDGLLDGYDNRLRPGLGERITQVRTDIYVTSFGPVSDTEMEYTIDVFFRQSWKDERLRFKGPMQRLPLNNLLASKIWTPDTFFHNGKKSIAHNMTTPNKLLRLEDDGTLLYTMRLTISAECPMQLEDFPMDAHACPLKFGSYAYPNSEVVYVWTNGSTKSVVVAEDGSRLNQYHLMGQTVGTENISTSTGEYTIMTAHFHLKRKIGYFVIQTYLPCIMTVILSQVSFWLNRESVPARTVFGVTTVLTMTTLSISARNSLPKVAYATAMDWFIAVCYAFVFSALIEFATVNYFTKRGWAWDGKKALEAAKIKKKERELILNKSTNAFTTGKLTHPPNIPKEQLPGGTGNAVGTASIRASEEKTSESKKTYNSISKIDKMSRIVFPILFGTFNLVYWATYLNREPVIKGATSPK
T5 sequence (P63079 26-473 partner): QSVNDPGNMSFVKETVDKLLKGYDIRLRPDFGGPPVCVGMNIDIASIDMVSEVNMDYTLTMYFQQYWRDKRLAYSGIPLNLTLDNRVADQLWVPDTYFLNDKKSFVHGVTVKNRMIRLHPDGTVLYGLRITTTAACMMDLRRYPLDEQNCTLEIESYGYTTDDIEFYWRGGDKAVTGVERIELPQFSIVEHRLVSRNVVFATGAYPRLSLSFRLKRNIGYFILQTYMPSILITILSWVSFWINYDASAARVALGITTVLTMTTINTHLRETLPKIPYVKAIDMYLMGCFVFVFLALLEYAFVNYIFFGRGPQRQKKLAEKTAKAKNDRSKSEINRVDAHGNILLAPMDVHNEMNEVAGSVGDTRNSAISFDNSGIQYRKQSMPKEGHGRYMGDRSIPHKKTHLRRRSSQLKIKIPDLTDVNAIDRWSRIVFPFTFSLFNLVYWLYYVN
T5 sequence (P18508 39-466): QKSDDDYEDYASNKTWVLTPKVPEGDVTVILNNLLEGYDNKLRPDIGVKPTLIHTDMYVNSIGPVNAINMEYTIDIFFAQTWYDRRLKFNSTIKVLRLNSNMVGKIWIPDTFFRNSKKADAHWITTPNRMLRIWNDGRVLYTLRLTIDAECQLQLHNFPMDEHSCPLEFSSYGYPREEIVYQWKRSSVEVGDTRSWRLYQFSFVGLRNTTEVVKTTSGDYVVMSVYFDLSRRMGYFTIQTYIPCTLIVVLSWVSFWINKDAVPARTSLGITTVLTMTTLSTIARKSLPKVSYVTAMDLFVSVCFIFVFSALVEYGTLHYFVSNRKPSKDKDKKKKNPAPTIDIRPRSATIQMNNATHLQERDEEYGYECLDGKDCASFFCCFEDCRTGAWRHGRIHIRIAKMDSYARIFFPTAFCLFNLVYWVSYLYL

GABAA α3β3γ2 receptors = assay: as above; format: cell-based, rat; settings: saturating 1-10 μM modulator with EC50 GABA (30 μM); mean±S.D.
GABAA α4β3γ2 receptors = assay: as above; format: cell-based, rat
α1β3γ2 GABAA receptor [6] = target: T6, α1β3γ2 GABAA receptor (Homo sapiens, UniProt P14867+P18507); settings: footnoted b (Schering Labs, unpublished) or c (McKernan et al., 2000); read-out: Ki α1; cited from earlier work
T6 construct: expressed in transfected cells
T6 sequence (P14867 28-456): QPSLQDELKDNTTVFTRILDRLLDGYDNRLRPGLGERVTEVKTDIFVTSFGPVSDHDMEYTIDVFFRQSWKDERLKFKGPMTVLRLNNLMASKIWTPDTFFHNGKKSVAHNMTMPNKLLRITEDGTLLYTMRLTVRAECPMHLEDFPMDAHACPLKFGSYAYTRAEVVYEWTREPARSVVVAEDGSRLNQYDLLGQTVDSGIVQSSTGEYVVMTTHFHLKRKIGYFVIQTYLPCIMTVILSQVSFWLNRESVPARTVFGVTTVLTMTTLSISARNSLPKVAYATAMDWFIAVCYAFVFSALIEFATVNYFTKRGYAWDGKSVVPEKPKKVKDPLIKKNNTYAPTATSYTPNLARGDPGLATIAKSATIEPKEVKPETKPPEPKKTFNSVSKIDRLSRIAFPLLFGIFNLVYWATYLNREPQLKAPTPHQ
T6 sequence (P28472 26-473 partner): as the sequence (P28472 26-473 partner) above
T6 sequence (P18507 40-475): as the sequence (P18507 40-475) above

α6β3γ2 GABAA receptor [7] = target: T7, α6β3γ2 GABAA receptor (Homo sapiens, UniProt P18507+Q16445); settings: footnoted b or c; read-out: Ki α6; cited from earlier work
T7 construct: expressed in transfected cells
T7 sequence (Q16445 20-453): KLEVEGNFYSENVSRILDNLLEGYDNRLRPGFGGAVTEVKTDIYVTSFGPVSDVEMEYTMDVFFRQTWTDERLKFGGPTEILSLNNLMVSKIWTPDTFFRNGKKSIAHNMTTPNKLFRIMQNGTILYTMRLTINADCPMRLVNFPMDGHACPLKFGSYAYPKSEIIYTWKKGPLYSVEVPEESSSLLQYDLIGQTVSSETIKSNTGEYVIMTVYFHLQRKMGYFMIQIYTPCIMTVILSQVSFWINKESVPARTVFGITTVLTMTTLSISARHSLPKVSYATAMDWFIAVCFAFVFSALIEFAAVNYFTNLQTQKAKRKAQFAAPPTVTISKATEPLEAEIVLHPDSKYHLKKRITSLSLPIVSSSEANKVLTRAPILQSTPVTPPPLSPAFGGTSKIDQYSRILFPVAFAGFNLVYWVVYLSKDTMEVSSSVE
T7 sequence (P28472 26-473 partner): as the sequence (P28472 26-473 partner) above
T7 sequence (P18507 40-475): as the sequence (P18507 40-475) above

P rats [8] = assay: EtOH and sucrose responding after oral (gavage) administration; format: in vivo, rat
From the text: In this study we compared the suppressant effect of βCCt and 3-PBC with naltrexone, a currently used alcohol antagonist on the market. As it is shown in FIG. 29A-B, orally administered βCCt can reduce alcohol responding, however, the effects are not dose related. In addition, 24 hr after administration of βCCt, it continues to reduce alcohol responding with selected doses. […] The suppressant effects of naltrexone in reducing alcohol responding are also dissipated 24 hr after the administration. […] Unlike naltrexone, the suppressant effects observed by βCCt and 3-PBC are selective for alcohol, and not reinforcers in general.

HAD-1 rats = format: in vivo, rat; settings: i.p.; chlordiazepoxide 10 mg/kg, βCCt 15 mg/kg; 10 min open field
Method: (§1) Ambulatory count in the open field was recorded individually for 10 min in a plexiglas chamber (42 cm×42 cm 30 cm) using a Digiscan activity monitoring system (Acuscan Electronics, Columbus, Ohio, USA) (for details of the monitoring system see June et al., 1998d).
(§2) βCCt (15 mg/kg i.p.) and chlordiazepoxide (10 mg/kg i.p.) were administered 15 and 30 min, respectively, prior to the rats being placed in the open field. EtOH (1.25 g/kg) was given 5 min prior to placing the rats in the open field. When βCCt was given in combination with either chlordiazepoxide or EtOH, it was given 10 min prior to chlordiazepoxide and EtOH. As noted above, βCCt was administered in Tween-20 solution, while all other drugs were mixed in sterile saline. Animals were tested between 9 am-3 pm.
(§3) Ambulatory count in the open field was recorded individually for 10 min in a plexiglas chamber (42 cm×42 cm 30 cm) using a Digiscan activity monitoring system (Acuscan Electronics, Columbus, Ohio, USA) (for details of the monitoring system see June et al., 1998b).
(§4) βCCt (5-60 mg/kg i.p.) and chlordiazepoxide (2.5, 5, 10 mg/kg i.p.) were administered 15 and 30 min, respectively, prior to being placed in the plus maze or open field. EtOH (1.25 g/kg) was given 5 min prior to placing the rats in the open field. When βCCt was given in combination with either chlordiazepoxide or EtOH, it was given 10 min prior to chlordiazepoxide and EtOH. As noted above, βCCt was administered in Tween-20 solution, while all other drugs were mixed in sterile saline. Animals were tested between 9am-3 pm.

P rats [9] = format: in vivo, rat; settings: i.p.; chlordiazepoxide 10 mg/kg, βCCt 15 mg/kg; 10 min open field
Method: as §1, §2, §3, §4

squirrel monkeys = settings: Rowlett et al., unpublished observation; cited from earlier work
[10] = system: recombinant GABAA α1 through α5 (β3γ2) receptors; assay: Xenopus oocyte expression assay, result stated across several subtypes; format: cell-based, rat; settings: saturating concentration; compared with 3-PBC
[11] = target: wild type BDZ receptors (cerebral cortical membranes); assay: Radioligand displacement at cerebral cortical membranes; format: binding; settings: read-out: Displacement of [3H] flunitrazepam in vitro, IC50; rat cerebral cortical membranes; mean of three or more experiments
Method: [^3H] […] In brief, rats were sacrificed by decapitation, and the cerebral cortex removed. […] Tissue was resuspended in an equal volume of buffer and recentrifuged. This procedure was repeated a total of three times and the tissue resuspended in 50 volumes of buffer. Incubations (1 mL) consisted of tissue (0.3 mL), drug solution (0.1 mL), buffer (0.5 mL) and radioligand (0.1 mL). […] The IC50 values were estimated using Hill plots.

α6β3γ2 GABAA receptor [12] = target: T7, α6β3γ2 GABAA receptor; assay: Binding affinity at recombinant GABAA receptors (Ltk cells stably transfected)
α1β3γ2 GABAA receptor [13] = target: T6, α1β3γ2 GABAA receptor; assay: as above; settings: recombinant αxβ3γ2; read-out: Ki α1
α5β3γ2 GABAA receptor [14] = target: T3, α5β3γ2 GABAA receptor; assay: as above
α2β3γ2 GABAA receptor [15] = target: T4, α2β3γ2 GABAA receptor; assay: as above; settings: recombinant αxβ3γ2; read-out: Ki α2
α3β3γ2 GABAA receptor [16] = target: T1, α3β3γ2 GABAA receptor; assay: as above; settings: recombinant αxβ3γ2; read-out: Ki α3
[17] = recombinant αxβ3γ2, read-out: Ki α6
[18] = recombinant αxβ3γ2, read-out: Ki α5

**Q.** What does the source list for CCOC(=O)c1ncc2[nH]c3cccc(OC(C)C)c3c2c1C [ZK 93426]?
**A.** % of GABA response, α2 (GABAA α2β3γ2 receptors): 140±13%; Ki (α3β3γ2 GABAA receptor [1]): 24 nM; blocking the sedative actions of alcohol [2]: capable of blocking; alcohol-maintained responding [3]: can selectively reduce alcohol-maintained responding; % of GABA response, α1 (GABAA α1β3γ2 receptors): 146+11%; Ki (α5β3γ2 GABAA receptor [4]): 3 nM; Ki (α2β3γ2 GABAA receptor [5]): 31 nM; % of GABA response, α5 (GABAA α5β3γ2 receptors): ~96±6%; % of GABA response, α3 (GABAA α3β3γ2 receptors): 147±10%; % of GABA response, α4 (GABAA α4β3γ2 receptors): 137±8%; Ki (α1β3γ2 GABAA receptor [6]): 11 nM; Ki (α6β3γ2 GABAA receptor [7]): 1600 nM

**Q.** With O=C1CC[C@@]2(O)[C@H]3Cc4ccc(O)c5c4[C@@]2(CCN3CC2CC2)[C@H]1O5 [Naltrexone, naltrexone, reference compound] as the compound, how does the responding for sucrose (P rats [8]; oral (gavage) 75 mg/kg) read?
**A.** The responding for sucrose was “significantly reduces responding for sucrose”.

**Q.** What about the EtOH responding (P rats [8]; oral (gavage), βCCt 15 & 30 mg/kg, 3-PBC 30-75 mg/kg, naltrexone 30-75 mg/kg) of the same compound?
**A.** The EtOH responding was “significantly reduces EtOH responding”.

**Q.** And the “EtOH responding 24 hours after administration” value (P rats [8]; oral (gavage), βCCt 15 & 75 mg/kg)?
**A.** The value was “dissipated”.

**Q.** With CNC1=Nc2ccc(Cl)cc2C(c2ccccc2)=[N+]([O-])C1 [Chlordiazepoxide, reference compound] as the compound, how does the “locomotor activity, drug given alone” value (HAD-1 rats) read?
**A.** Its value is “profound and comparable reduction in locomotor activity”.

**Q.** And the “locomotor activity, drug given alone” value (P rats [9])?
**A.** Its value is “profound and comparable reduction in locomotor activity”.

**Q.** Which “activity in observational studies vs saline controls” value (squirrel monkeys) does the source give for CCOC(=O)c1ncn2c1CN(C)C(=O)c1cc(F)ccc1-2 [Ro15-1788, flumazenil] here?
**A.** Its value is “decreased overall activity”.

**Q.** And the “% of GABA response, α2” value (GABAA α2β3γ2 receptors)?
**A.** The value was 115±4%.

**Q.** And the alcohol-maintained responding [3]?
**A.** The alcohol-maintained responding was “did not alter EtOH-maintained responding”.

**Q.** What about the “% of GABA response, α1” value (GABAA α1β3γ2 receptors) of the same compound?
**A.** Its value is 99±5%.

**Q.** And the “% of GABA response, α5” value (GABAA α5β3γ2 receptors)?
**A.** The value was 96±6%.

**Q.** What about the “efficacy profile at the α1 through α5 receptors” value [10] of the same compound?
**A.** The value was “statistically similar to 3-PBC”.

**Q.** What about the “% of GABA response, α3” value (GABAA α3β3γ2 receptors) of the same compound?
**A.** Its value is 118±7%.

**Q.** And the “% of GABA response, α4” value (GABAA α4β3γ2 receptors; saturating 1-10 μM modulator with EC50 GABA (10 μM), mean±S.D.)?
**A.** Its value is 132±6%.

**Q.** For COc1cc2c(cn1)[nH]c1ccccc12 [3-methoxy], which IC50 [11] is on record?
**A.** The IC50 was 124 nM.

**Q.** With CCOc1cc2c(cn1)[nH]c1ccccc12 [3-EBC] as the compound, how does the Ki (α6β3γ2 GABAA receptor [12]; [17]) read?
**A.** The Ki was > 1000 nM.

**Q.** What about the Ki (α1β3γ2 GABAA receptor [13]) of the same compound?
**A.** The Ki was 6.43 nM.

**Q.** And the Ki (α5β3γ2 GABAA receptor [14]; [18])?
**A.** Its Ki is 868 nM.

**Q.** And the Ki (α2β3γ2 GABAA receptor [15])?
**A.** Its Ki is 25.1 nM.

**Q.** And the IC50 [11]?
**A.** The IC50 was 24 nM.

**Q.** For CCOC(=O)c1cc2c(cn1)[nH]c1ccccc12 [βCCE], which IC50 [11] is on record?
**A.** The IC50 was 5 nM.

**Q.** Which Ki (α6β3γ2 GABAA receptor [12]; [17]) does the source give for Cc1nnc2ccc(-c3cccc(C(F)(F)F)c3)nn12 [CL218, 872, reference compound] here?
**A.** Its Ki is > 1000 nM.

**Q.** What about the Ki (α3β3γ2 GABAA receptor [16]) of the same compound?
**A.** Its Ki is 1160 nM.

**Q.** And the Ki (α1β3γ2 GABAA receptor [13])?
**A.** The Ki was 57 nM.

**Q.** What about the Ki (α5β3γ2 GABAA receptor [14]; [18]) of the same compound?
**A.** Its Ki is 561 nM.

**Q.** What about the Ki (α2β3γ2 GABAA receptor [15]) of the same compound?
**A.** Its Ki is 1960 nM.

**Q.** Which Ki (α6β3γ2 GABAA receptor [12]) does the source give for Cc1ccc(-c2nc3ccc(C)cn3c2CC(=O)N(C)C)cc1 [Zolpidem, reference compound] here?
**A.** The Ki was > 1000 nM.

**Q.** And the Ki (α5β3γ2 GABAA receptor [14])?
**A.** The Ki was > 1000 nM.

**Q.** With Cn1ncnc1COc1nn2c(-c3cc(F)ccc3F)nnc2cc1C(C)(C)C [L-838, 417] as the compound, how does the Ki (α3β3γ2 GABAA receptor [1]) read?
**A.** Its Ki is 0.67 nM.

**Q.** And the Ki (α5β3γ2 GABAA receptor [4])?
**A.** Its Ki is 267 nM.

**Q.** What about the Ki (α2β3γ2 GABAA receptor [5]) of the same compound?
**A.** Its Ki is 0.67 nM.

**Q.** And the Ki (α1β3γ2 GABAA receptor [6])?
**A.** The Ki was 0.79 nM.

**Q.** What about the Ki (α6β3γ2 GABAA receptor [7]) of the same compound?
**A.** The Ki was 2.25 nM.
